Test results taken from patent publication US12398110B2, “Second generation inhibitors of mitochondrial permeability transition pore with improved plasma stability” (Oregon Health & Science University, priority 2019, dated 2025).
Like-named read-outs stand apart in the source and are kept apart here.

What was measured:
Format in all cases: biochemical
[1] = system: mtPTP; assay: Ca2+ retention capacity (CRC) of isolated mouse liver mitochondria
Experimental: CRC determines the Ca^2+ threshold required for mtPTP activation; inhibitors of mtPTP are expected to increase the Ca^2+ threshold required for mtPTP induction. Extramitochondrial Ca^2+ changes are detected using the membrane-impermeant Ca^2+ indicator, Calcium Green-5N.
(§1) Isolation of mitochondria. C57BL6/N mouse liver mitochondria were prepared from 2 to 6 month old male mice by standard differential centrifugation. Mice fed ad libitum were euthanized with CO2 followed cervical dislocation, their livers were existed and placed in a glass beaker containing ice-cold isolation buffer (IB: 0.25 m sucrose, 10 mm Tris-HCl, 0.1 mm EGTA-Tris, pH 7.4) supplemented with fatty acid free bovine serum albumin. Livers were then cut into small pieces with scissors, rinsed with ice-cold IB, and passed through a pre-chilled Potter homogenizer with Teflon pestle. The homogenate (˜30 mL per liver) was transferred to centrifuge tubes, and unbroken cells and nuclei were removed by centrifugation at 700 g for 10 min at 4° C. The supernatant containing mitochondria and other organelles was transferred to new tubes and centrifuged at 6000 g for 10 min at 4° C. The resulting supernatant was discarded and mitochondrial pellet was carefully suspended in ice-cold IB and spun at 9500 g for 5 min at 4° C. The pellet was suspended in IB to give a protein concentration of ˜60-80 mg/mL and stored on ice. Experiments were started immediately and completed within 5 h. Protein concentration was determined by the Biuret method.
Assessment of Ca^2+ retention capacity (CRC). CRC of isolated mouse liver mitochondria was assessed as follows: First, 0.1 mL of SAB were dispensed to a 96-well black assay plate in the presence of 2% DMSO (control wells) or varying concentrations of test compounds, in 1:2 serial dilutions. Then, 0.1 mL of 0.5 mg/mL mitochondria in SAB devoid of respiratory substrates, but supplemented with 1 μm Calcium Green-5N were added to all wells of the assay plate. A train of 10 μm CaCl2 pulses was added at 2 min intervals, and fluorescence intensity (ex/em 485/535 nm) was read on Tecan Infinite F200 plate reader.

[2] = system: inner mitochondrial membrane potential; assay: Rhodamine 123 (Rh123) uptake, mitochondrial membrane potential of isolated mouse liver mitochondria
Excerpt: We next evaluated the mitochondrial toxicity of the new triazole analogs by testing their ability to interfere with accumulation of the membrane-permeant cationic fluorescent dye rhodamine 123 (Rh123). The mitochondrial uptake of positively charged Rh123 is driven by the inside negative IMM potential, which is built by the respiratory chain or maintained by ATP hydrolysis if certain conditions are met. […] It should be noted, however, that toxicity for these compounds only occurs at ˜10-1000-fold higher concentrations compared to mtPTP inhibition, providing a good therapeutic window.
Assessment of mitochondrial membrane potential. Mitochondrial membrane potential—to evaluate toxicity—of isolated mouse liver mitochondria was assessed based on fluorescence quenching of the cationic fluorescent dye Rh123 upon its accumulation into mitochondrial matrix due to inside negative membrane potential. Compounds that interfere with the build-up or maintenance of IMM potential would shift Rh123 fluorescence to higher values compared to DMSO treated samples. Uncoupler FCCP was used to account for nonspecific fluorescence. First, 0.1 mL of SAB was dispensed to a 96-well black assay plate. A set of wells also contained 0.8 μm FCCP (to prevent Rh123 uptake). The test wells contained a range of concentrations (in 1:2 serial dilutions) of the compounds of interest or 2% DMSO. Then, 0.1 mL of 0.5 mg/mL mitochondria in SAB devoid of respiratory substrates but supplemented with 0.8 μm Rh123 were added to all wells of the assay plate. Fluorescence intensity (ex/em 485/535 nm) was read on a Tecan Infinite F200 plate reader for 7 min and value at 5 min was considered for analysis. EC50s±SE were determined with OriginPro software by applying Hill1 function fitting algorithm on average concentration response data of n=3 independent preparations.

[3] = system: mtPTP; assay: Ca2+ overload induced mitochondrial swelling in isolated mouse liver mitochondria; conditions: for mtPTP inhibitory activity (in words): SAR discussion of Table 2
Experimental: We next sought to evaluate the effects of TR001-13 on mtPTP activity in vitro. This was performed on isolated mitochondria. In isolated mitochondria induction of mtPTP opening leads to mitochondrial swelling due to the oncotic pressure gradient created by matrix proteins >1.5 kDa that cannot diffuse through the open pore. In in vitro experiments, where isolated mitochondria are routinely suspended in sucrose-based isosmotic solutions, the change in mitochondrial size can be measured spectrometrically by detecting the decrease in light scattering at 540 nm.
as §1
Assessment of mitochondrial swelling. Changes in mitochondrial volume of isolated mouse liver mitochondria were followed in a 96-well clear assay plate at a final volume of 0.2 mL and 0.25 mg/mL mitochondrial protein. Absorbance was read for 30 min at 540 nm on a Tecan Infinite F200 plate reader. Activity of test compounds was addressed as follows: First, 0.1 mL of sucrose assay buffer (SAB: 0.250 m sucrose, 10 mm MOPS-Tris, 0.01 mm EGTA-Tris, 1.0 mm phosphoric acid-Tris, 10 mm glutamate and 5 mm malate, pH 7.4) supplemented with twice the CaCl2 concentration required to induce mitochondrial swelling (which was determined for each preparation of mitochondria, typically 50 μm) was dispensed to the assay plate. A set of wells also contained 2.0 mm EGTA (to prevent mitochondrial swelling). The test wells contained a range of concentrations (in 1:2 serial dilutions) of the compounds of interest or 2% DMSO. Experiments were started by the addition of 0.1 mL of mitochondrial suspension (0.5 mg/mL mitochondria in SAB without respiratory substrates) to the assay plates. EC50s±SE were determined with OriginPro software by applying Hill1 function fitting algorithm on average concentration response data of n=3-41 independent preparations.

[4] = Mouse Liver Mitochondria (MLM), comparative examples
[5] = Mouse Liver Mitochondria (MLM), comparative examples, read-out: Rh123 EC50
[6] = Mouse Liver Mitochondria (MLM), comparative examples, read-out: Swelling EC50
[7] = compound treated CRC to DMSO treated CRC0 ratio, 1.25 μM, average ± SEM, n = 3-25
[8] = interference with Rh123 uptake to mitochondria, average ± SEM, n = 3, read-out: Rh123 uptake EC50
[9] = isolated mouse liver mitochondria, average ± SEM, n = 3-41, read-out: Mitochondrial Swelling EC50

SMILES	CRC/CRC0 at 1.25 μM [1, 4]	EC50 [2, 5] [µM]	EC50 [3, 6] [µM]	CRC/CRC0 at 1.25 μM [1, 7]	EC50 [2, 8] [µM]	mtPTP inhibitory activity (in words) [3]	EC50 [3, 9] [µM]	fold decrease in activity compared to TR002 ([3]; mitochondrial swelling, vs TR002) [fold]
Cc1ccc(Cl)cc1NC(=O)c1cn(-c2cccc(O)c2C)nn1 [drawing 68]	1.4	> 40	10.6					
Cc1ccc(Cl)cc1NC(=O)c1cn(-c2cccc(O)c2F)nn1 [drawing 51]	7.8	29	0.152					
Cc1ccc(Cl)cc1NC(=O)c1cn(-c2ccc(Cl)c(O)c2)nn1 [TR006, N-(5-chloro-2-methylphenyl)-1-(4-chloro-3-hydroxyphenyl)-1H-1,2,3-triazole-4-carboxamide]				3.9 ± 0.3	> 40	decreased activity	0.135 ± 0.015	
Cc1ccc(N=[N+]=[N-])cc1NC(=O)c1cn(-c2ccc(F)c(O)c2)nn1	2.4	> 40	0.578					
Cc1ccc(Cl)cc1NC(=O)c1cn(-c2cc(O)cc(Cl)c2)nn1 [TR008, N-(5-chloro-2-methylphenyl)-1-(3-chloro-5-hydroxyphenyl)-1H-1,2,3-triazole-4-carboxamide]				7.3 ± 1.1	> 40		0.028 ± 0.005	2
Cc1ccc(Cl)cc1NC(=O)c1cn(-c2cc(O)cc(C(F)(F)F)c2)nn1 [TR013, N-(5-chloro-2-methylphenyl)-1-(3-(trifluoromethyl)-5-hydroxyphenyl)-1H-1,2,3-triazole-4-carboxamide]				2.9 ± 0.1	6.2 ± 1.2	significantly reduced activity	0.534 ± 0.047	
Cc1ccc(Cl)cc1NC(=O)c1cn(-c2ccc(F)c(O)c2)nn1 [drawing 47]	1	10	4					
Cc1c(Cl)cccc1NC(=O)c1cn(-c2ccc(F)c(O)c2)nn1	5.4	> 40	0.0051					
Cc1ccc(I)cc1NC(=O)c1cn(-c2ccc(F)c(O)c2)nn1	8.3	14.7	0.028					
Cc1ccc(Cl)cc1NC(=O)c1cn(-c2cc(O)cc(C(F)(F)F)c2)nn1 [drawing 71]	3	6	0.534					
Cc1ccc(Cl)cc1NC(=O)c1cn(-c2ccc(Br)c(O)c2)nn1 [drawing 60]	2.4	> 40	0.475					
Cc1ccc(Cl)cc1NC(=O)c1cn(-c2cc(O)ccc2F)nn1 [drawing 53]	1.4	> 40	> 20					
Cc1ccc(Cl)cc1NC(=O)c1cn(-c2ccc(Br)c(O)c2)nn1 [TR009, 1-(4-bromo-3-hydroxyphenyl)-N-(5-chloro-2-methylphenyl)-1H-1,2,3-triazole-4-carboxamide]				2.4 ± 0.2	> 40	decreased activity	0.475 ± 0.057	
CCOC(=O)Oc1cc(-n2cc(C(=O)Nc3cc(Cl)ccc3C)nn2)ccc1F	1.8	> 40	0.581					
Cc1ccc(Cl)cc1NC(=O)c1cn(-c2ccc(F)c(O)c2F)nn1 [drawing 58]	2.6	> 40	0.782					
Cc1ccc(Cl)cc1NC(=O)c1cn(-c2cc(O)ccc2F)nn1 [TR004, N-(5-chloro-2-methylphenyl)-1-(2-fluoro-5-hydroxyphenyl)-1H-1,2,3-triazole-4-carboxamide]				1.3 ± 0.03	> 40	inactive	> 20	
Cc1ccc(Cl)cc1NC(=O)c1cn(-c2ccc(F)c(O)c2)nn1 [drawing 46]	7.4	> 100	0.025					
Cc1ccc(Cl)cc1NC(=O)c1cn(-c2ccc(F)c(O)c2F)nn1 [TR005]				2.6 ± 0.2	> 40	decreased activity	0.782 ± 0.114	
